Measured values published in PMC10145285, “Diverse Biological Activity of Benzofuroxan/Sterically Hindered Phenols Hybrids” (Pharmaceuticals, 2023).
Values after ≈ are worked out from the molar mass of the structure shown. Read-outs that look alike come from different tables or passages of the source.

Legend:
[1] = system: A375; experiment: cells; assay type: cell-based; details: Homo sapiens, read-out: IC50, A375
[2] = system: Staphylococcus aureus ATCC 6538P FDA 209P (Sa); experiment: Antimicrobial serial microdilution, Sa; assay type: cell-based; details: for MIC: Staphylococcus aureus, read-out: Minimum Inhibitory Concentration (MIC), Sa
[3] = system: T98G; experiment: cells; assay type: cell-based; details: Homo sapiens, 48 h, read-out: IC50, T98G
[4] = system: MCF-7; experiment: cells; assay type: cell-based, human; details: Homo sapiens, read-out: IC50, MCF-7
[5] = system: Bacillus cereus ATCC 10702 (Bc); experiment: Antimicrobial serial microdilution, Bc; assay type: cell-based
[6] = system: MRSA-1; experiment: Antimicrobial serial microdilution, MRSA-1; assay type: cell-based, Staphylococcus aureus
[7] = system: PC3; experiment: cells; assay type: cell-based; details: Homo sapiens, read-out: IC50, PC3
[8] = system: M-HeLa; experiment: cells; details: Homo sapiens, 48 h, read-out: IC50, M-HeLa
[9] = system: PANC-1; experiment: cells; details: Homo sapiens, PANC-1, 48 h, read-out: IC50, PANC-1
[10] = system: A549; experiment: cells; details: Homo sapiens, A549, 48 h, read-out: IC50, A549
[11] = system: WI38; experiment: cells; assay type: cell-based; details: Homo sapiens, read-out: IC50, WI38
[12] = system: Enterococcus faecalis ATCC 29212 (Ef); experiment: Antimicrobial serial microdilution, Ef; assay type: cell-based; details: for MIC: Enterococcus faecalis
[13] = system: Chang Liver; experiment: cells; details: Homo sapiens, 48 h, read-out: IC50, Chang Liver
[14] = system: MRSA-2; experiment: Antimicrobial serial microdilution, MRSA-2; assay type: cell-based, Staphylococcus aureus
[15] = system: HuTu 80; experiment: cells; details: Homo sapiens, HuTu80, 48 h, read-out: IC50, HuTu 80
[16] = A-375, cancer cell line, 48 h incubation, MTT
[17] = WI-38, normal cell line, 48 h incubation, MTT
[18] = serial microdilution, Mueller-Hinton broth
[19] = serial microdilution, strain resistant to β-lactams and fluoroquinolones
[20] = serial microdilution, strain resistant only to β-lactams

Structure (SMILES)	IC50 ([1]; A-375, 48 h) [µM]	IC50 [3] [µM]	IC50 ([4]; MCF7, 48 h) [µM]	IC50 ([7]; PC-3, 48 h) [µM]	IC50 [8] [µM]	IC50 [9] [µM]	IC50 [10] [µM]	IC50 ([11]; WI-38, 48 h) [µM]	IC50 [13] [µM]	IC50 [15] [µM]	Minimum Inhibitory Concentration (MIC), Sa [2]	Minimum Inhibitory Concentration (MIC), Bc [5]	Minimum Inhibitory Concentration (MIC), Ef [12]	further results
CC(C)OP(=O)(OC(C)C)C(c1cc(C(C)(C)C)c(O)c(C(C)(C)C)c1)c1ccc(Nc2c([N+](=O)[O-])cc([N+](=O)[O-])c3no[n+]([O-])c23)nc1Nc1c([N+](=O)[O-])cc([N+](=O)[O-])c2no[n+]([O-])c12 (centres unmarked) [5c, 7,7’-((3-((3,5-di-tert-butyl-4-hydroxyphenyl)(diisopropoxyphosphoryl)methyl)pyridine-2,6-diyl)bis(azanediyl))bis(4,6-dinitrobenzo[c][1,2,5]oxadiazole 1-oxide)]	9 ± 0.8	7.7 ± 0.6	4.5 ± 0.4	6.8 ± 0.5	2.4 ± 0.2	5 ± 0.3	7.7 ± 0.6	5 ± 0.4	4.1 ± 0.8	3.9 ± 0.3				Minimum bactericidal and fungicidal concentrations (MBC), (MFC), Sa [2]: -; MIC [2]: 31.3 ± 2.3 µg/mL (≈ 33.3 µM); MIC ([5]; Bacillus cereus, ATCC10702, read-out: Minimum Inhibitory Concentration (MIC), Bc): 31.3 ± 2.5 µg/mL (≈ 33.3 µM); MBC ([5]; Bacillus cereus, ATCC10702, read-out: Minimum bactericidal and fungicidal concentrations (MBC), (MFC), Bc): 250 ± 20 µg/mL (≈ 266 µM); Minimum bactericidal and fungicidal concentrations (MBC), (MFC), MRSA-1 [6]: -; MIC ([6]; Staphylococcus aureus, MRSA, read-out: Minimum Inhibitory Concentration (MIC), MRSA-1): 62.5 ± 5.5 µg/mL (≈ 66.5 µM); Minimum bactericidal and fungicidal concentrations (MBC), (MFC), Ef [12]: -; MIC ([12]; ATCC29212, read-out: Minimum Inhibitory Concentration (MIC), Ef): 62.5 ± 5.3 µg/mL (≈ 66.5 µM); Minimum bactericidal and fungicidal concentrations (MBC), (MFC), MRSA-2 [14]: -; MIC ([14]; Staphylococcus aureus, MRSA, read-out: Minimum Inhibitory Concentration (MIC), MRSA-2): 250 ± 20 µg/mL (≈ 266 µM)
CC(C)(C)c1cc(C(c2ccc(Nc3c([N+](=O)[O-])cc([N+](=O)[O-])c4no[n+]([O-])c34)nc2N)P(=O)(Oc2ccccc2)Oc2ccccc2)cc(C(C)(C)C)c1O (centres unmarked) [4d, 7-((6-amino-5-((3,5-di-tert-butyl-4-hydroxyphenyl)(diphenoxyphosphoryl)methyl)pyridin-2-yl)amino)-4,6-dinitrobenzo[c][1,2,5]oxadiazole 1-oxide]	17 ± 1.4	7.9 ± 0.7	9 ± 0.7	11.3 ± 0.9	6.3 ± 0.5	11.9 ± 0.9	9 ± 0.7	11.3 ± 1.1	21 ± 2.4	13.1 ± 1.1	-	-	-	Minimum Inhibitory Concentration (MIC), MRSA-1 [6]: -; Minimum Inhibitory Concentration (MIC), MRSA-2 [14]: -
CNC(=O)c1cc(Oc2ccc(NC(=O)Nc3ccc(Cl)c(C(F)(F)F)c3)cc2)ccn1 [SF, sorafenib, reference compound]		8.6 ± 0.7				12 ± 1.1	25.2 ± 2.2							IC50 [1, 16]: 6.8 ± 0.5 µM; IC50 ([7]; PC-3, cancer cell line, 48 h incubation, MTT): 11.3 ± 0.9 µM; IC50 [11, 17]: 6.6 ± 0.5 µM
CCOP(=O)(OCC)C(c1cc(C(C)(C)C)c(O)c(C(C)(C)C)c1)c1ccc(Nc2c([N+](=O)[O-])cc([N+](=O)[O-])c3no[n+]([O-])c23)nc1N (centres unmarked) [4b, 7-((6-amino-5-((3,5-di-tert-butyl-4-hydroxyphenyl)(diethoxyphosphoryl)methyl)pyridin-2-yl)amino)-4,6-dinitrobenzo[c][1,2,5]oxadiazole 1-oxide]	11.4 ± 0.9	8.3 ± 0.7	3.1 ± 0.2	11 ± 0.8	2.9 ± 0.2	5.3 ± 0.4	9.3 ± 0.8	5.3 ± 0.4	7 ± 1.5	5.4 ± 0.3				
CC(=O)N1CCN(c2ccc(OCC3COC(Cn4ccnc4)(c4ccc(Cl)cc4Cl)O3)cc2)CC1 (centres unmarked) [Ketoconazole, reference compound]														Minimum bactericidal and fungicidal concentrations (MBC), (MFC), Sa ([2]; serial microdilution): -; Minimum Inhibitory Concentration (MIC), Sa [2, 18]: -; Minimum bactericidal and fungicidal concentrations (MBC), (MFC), Bc ([5]; serial microdilution): -; Minimum Inhibitory Concentration (MIC), Bc [5, 18]: -; Minimum bactericidal and fungicidal concentrations (MBC), (MFC), MRSA-1 ([6]; serial microdilution): -; Minimum Inhibitory Concentration (MIC), MRSA-1 [6, 19]: -; Minimum bactericidal and fungicidal concentrations (MBC), (MFC), Ef ([12]; serial microdilution): -; Minimum Inhibitory Concentration (MIC), Ef [12, 18]: -; Minimum bactericidal and fungicidal concentrations (MBC), (MFC), MRSA-2 ([14]; serial microdilution): -; Minimum Inhibitory Concentration (MIC), MRSA-2 [14, 20]: -
COP(=O)(OC)C(c1cc(C(C)(C)C)c(O)c(C(C)(C)C)c1)c1ccc(N)cc1N (centres unmarked) [2e]			> 100		45.3 ± 3.2				> 100					
COP(=O)(OC)C(c1cc(C(C)(C)C)c(O)c(C(C)(C)C)c1)c1ccc(N)nc1N (centres unmarked) [2a]			31 ± 2.6		16.1 ± 1.3				> 100	> 100	-	-	-	Minimum Inhibitory Concentration (MIC), MRSA-1 [6, 19]: -; Minimum Inhibitory Concentration (MIC), MRSA-2 [14, 20]: -
COc1cccc2c1C(=O)c1c(O)c3c(c(O)c1C2=O)C[C@@](O)(C(=O)CO)C[C@@H]3O[C@H]1C[C@H](N)[C@H](O)[C@H](C)O1 [DOX, doxorubicin, reference compound]		2 ± 0.1			2.1 ± 0.2	2.2 ± 0.1	0.7 ± 0.05		0.5 ± 0.04	0.2 ± 0.01				IC50 [1, 16]: 0.3 ± 0.02 µM; IC50 ([4]; MCF7, cancer cell line, 48 h incubation, MTT): 0.4 ± 0.03 µM; IC50 [11, 17]: 0.4 ± 0.02 µM
O=C(N[C@H](CO)[C@H](O)c1ccc([N+](=O)[O-])cc1)C(Cl)Cl [Chloramphenicol, reference compound]														MIC [2, 18]: 31.3 ± 2.2 µg/mL (≈ 96.9 µM); Minimum bactericidal and fungicidal concentrations (MBC), (MFC), Sa ([2]; serial microdilution): -; MIC ([5]; Bacillus cereus, ATCC10702, serial microdilution, Mueller-Hinton broth, read-out: Minimum Inhibitory Concentration (MIC), Bc): 62.5 ± 5.4 µg/mL (≈ 193 µM); Minimum bactericidal and fungicidal concentrations (MBC), (MFC), Bc ([5]; serial microdilution): -; Minimum bactericidal and fungicidal concentrations (MBC), (MFC), MRSA-1 ([6]; serial microdilution): -; MIC ([12]; ATCC29212, serial microdilution, Mueller-Hinton broth, read-out: Minimum Inhibitory Concentration (MIC), Ef): 62.5 ± 5.2 µg/mL (≈ 193 µM); Minimum bactericidal and fungicidal concentrations (MBC), (MFC), Ef ([12]; serial microdilution): -; Minimum bactericidal and fungicidal concentrations (MBC), (MFC), MRSA-2 ([14]; serial microdilution): -
CC(C)(C)c1cc(C(c2ccc(N)nc2N)P(=O)(Oc2ccccc2)Oc2ccccc2)cc(C(C)(C)C)c1O (centres unmarked) [2d]			16 ± 1.2		7.4 ± 0.7				52 ± 3.5	63.2 ± 5.6	-	-	-	Minimum Inhibitory Concentration (MIC), MRSA-1 [6]: -; Minimum Inhibitory Concentration (MIC), MRSA-2 [14]: -
COP(=O)(OC)C(c1cc(C(C)(C)C)c(O)c(C(C)(C)C)c1)c1ccc(Nc2c([N+](=O)[O-])cc([N+](=O)[O-])c3no[n+]([O-])c23)nc1N (centres unmarked) [4a, 7-((6-amino-5-((3,5-di-tert-butyl-4-hydroxyphenyl)(dimethoxyphosphoryl)methyl)pyridin-2-yl)amino)-4,6-dinitrobenzo[c][1,2,5]oxadiazole 1-oxide]	13.5 ± 1.2	12.4 ± 1.2	7.6 ± 0.6	14 ± 1.2	4.2 ± 0.3	20 ± 1.7	13.5 ± 1.2	7.2 ± 0.6	12 ± 1.2	5.2 ± 0.4	-	-	-	Minimum Inhibitory Concentration (MIC), MRSA-1 [6]: -; Minimum Inhibitory Concentration (MIC), MRSA-2 [14]: -
COP(=O)(OC)C(c1cc(C(C)(C)C)c(O)c(C(C)(C)C)c1)c1ccc(Nc2c([N+](=O)[O-])cc([N+](=O)[O-])c3no[n+]([O-])c23)cc1N (centres unmarked) [4e, 7-((3-amino-4-((3,5-di-tert-butyl-4-hydroxyphenyl)(dimethoxyphosphoryl)methyl)phenyl)amino)-4,6-dinitrobenzo[c][1,2,5]oxadiazole 1-oxide]	53.1 ± 4.1	40.2 ± 3.1	21.5 ± 1.8	12.3 ± 1.1	12 ± 1	17.4 ± 1.3	48.3 ± 3.7	25.7 ± 2.2	14.3 ± 1.3	17.1 ± 1.3				
CC(C)OP(=O)(OC(C)C)C(c1cc(C(C)(C)C)c(O)c(C(C)(C)C)c1)c1ccc(N)nc1N (centres unmarked) [2c]			21.8 ± 1.7		38 ± 2.8				> 100	> 100	-	-	-	Minimum Inhibitory Concentration (MIC), MRSA-1 [6, 19]: -; Minimum Inhibitory Concentration (MIC), MRSA-2 [14, 20]: -
CCOP(=O)(OCC)C(c1cc(C(C)(C)C)c(O)c(C(C)(C)C)c1)c1ccc(N)nc1N (centres unmarked) [2b]			34.2 ± 3		17.1 ± 1.3				> 100	86.6 ± 6.8				
